Reference: ChEMBL document CHEMBL1149476, “Structure-activity relationship study of 9-aminoacridine compounds in scrapie-infected neuroblastoma cells” (Bioorg Med Chem Lett, 2006)

What was measured:
[1] = tested on: ScN2a; test: Inhibition of PrPSc accumulation in mouse ScN2a cell line relative to control; format: functional, cell-based
[2] = tested on: ScN2a; test: Cytotoxicity against mouse ScN2a cell line relative to control; format: functional; conditions: read-out: LD50 (the source's name)
[3] = tested on: HEK293; test: Cytotoxicity against HEK293 cells relative to control; format: functional; conditions: Homo sapiens, read-out: LD50 (the source's name)
[4] = tested on: HepG2; test: Cytotoxicity against HepG2 cells relative to control; format: functional; conditions: Homo sapiens, read-out: LD50 (the source's name)
[5] = Therapeutic index, LD50 for ScN2a cells/EC50 for PrPSc accumulation in ScN2a cells; format: cell-based; conditions: mouse, read-out: Ratio LD50/EC50

Work on `CCCN(CCC)CCCNc1c2ccc(OC)cc2nc2ccc(Cl)cc12` yielded an EC50 [1] of 400 nM, a CC50 [2] of 6 µM and a CC50 [3] of 10.7 µM. The CC50 [4] was 13.8 µM and the selectivity ratio [5] was 15.8.

`CCCN(CC)CCCNc1c2ccc(OC)cc2nc2ccc(C(F)(F)F)cc12` showed an EC50 [1] of 800 nM, a CC50 [2] of 7.6 µM and a CC50 [3] of 14.6 µM. The CC50 [4] was 16.5 µM and the selectivity ratio [5] was 9.8.

`CCN(CCCNc1c2ccc(OC)cc2nc2ccc(C(F)(F)F)cc12)Cc1ccccc1O` showed an EC50 [1] of 3900 nM, a CC50 [2] of 13 µM and a CC50 [3] of 23.1 µM. For the same compound, the CC50 [4] was over 25 µM and the selectivity ratio [5] was 2.6.

In the case of `CCCN(CCC)CCCNc1c2ccc(OC)cc2nc2c(C)cccc12`, the EC50 [1] is reported as 1000 nM, the CC50 [2] is reported as 1.4 µM and the CC50 [3] is reported as 0.7 µM. For the same compound, the CC50 [4] was 0.7 µM and the selectivity ratio [5] was 1.3.

With `CCCN(CCCNc1c2ccc(OC)cc2nc2c(C)cccc12)CC(C)C` the EC50 [1] was 1000 nM, the CC50 [2] was 1.3 µM and the CC50 [3] was 1.4 µM. For the same compound, the CC50 [4] was 0.7 µM and the selectivity ratio [5] was 1.3.

`CCN(CC)CCCC(C)Nc1c2ccc(OC)cc2nc2ccc(Cl)cc12` (stereo unspecified) gave an EC50 [1] of 700 nM, a CC50 [2] of 17.4 µM and a selectivity ratio [5] of 23.3.

Compound `CCN(CCCNc1c2ccc(OC)cc2nc2c(C)c(F)ccc12)CC(C)C` has a CC50 [2] of 0.6 µM, a CC50 [3] of 0.7 µM and a CC50 [4] of 0.6 µM.

With `CCCN(CC)CCCNc1c2ccc(OC)cc2nc2ccc(Cl)cc12` the EC50 [1] was 600 nM, the CC50 [2] was 8.5 µM and the CC50 [3] was 4.4 µM. The CC50 [4] was 6.9 µM and the selectivity ratio [5] was 13.6.

In the case of `CCCN(CC)CCCNc1c2ccc(OC)cc2nc2c(C)c(F)ccc12`, the CC50 [2] is reported as 0.6 µM, the CC50 [3] is reported as 0.8 µM and the CC50 [4] is reported as 0.7 µM.

Compound `CCCN(CCCNc1c2ccc(OC)cc2nc2ccc(C(F)(F)F)cc12)Cc1ccccc1` has an EC50 [1] of 7100 nM, a CC50 [2] of 18.3 µM and a CC50 [3] of 22.4 µM. The CC50 [4] was over 25 µM and the selectivity ratio [5] was 2.6.

With `CCCN(CCC)CCCNc1c2ccc(OC)cc2nc2ccc(C(F)(F)F)cc12` the EC50 [1] was 400 nM, the CC50 [2] was 11.7 µM and the CC50 [3] was 16.4 µM. It also gave a CC50 [4] of 18.1 µM and a selectivity ratio [5] of 28.6.

With `CCCN(CCC)CCCNc1c2ccc(Cl)cc2nc2ccc(OC)cc12` the EC50 [1] was 600 nM, the CC50 [2] was 6.4 µM and the selectivity ratio [5] was 10.9.

Compound `CCN(CC)CCCC(C)Nc1c2ccc(Cl)cc2nc2ccc(OC)cc12` (stereo unspecified) [QUINACRINE] has an EC50 [1] of 500 nM, a CC50 [2] of 9.6 µM and a CC50 [3] of 7.6 µM. It also gave a CC50 [4] of 7.9 µM.
